Assay results reported in the NIST ThermoML archive (doi:10.1021/acs.jced.8b00921).

Assay: xn = mol fraction of the nth substance listed
Details: Gas, isochoric method

F/C=C(\F)C(F)(F)F [(Z)-1,2,3,3,3-pentafluoro-1-propene] + CC(C)C
Details	specific volume [m3/kg]
303.15 K, 207 kPa, x2 = 0.504	0.1216
308.15 K, 210.7 kPa, x2 = 0.504	0.1216
308.15 K, 303.6 kPa, x2 = 0.797	0.1074
308.15 K, 309.8 kPa, x2 = 0.345	0.0717
308.15 K, 316 kPa, x2 = 0.175	0.0632
308.15 K, 394.7 kPa, x2 = 0.916	0.0901
308.15 K, 410.6 kPa, x2 = 0.477	0.0585
313.15 K, 214.4 kPa, x2 = 0.504	0.1216
313.15 K, 309.3 kPa, x2 = 0.797	0.1074
313.15 K, 315.5 kPa, x2 = 0.345	0.0717
313.15 K, 321.9 kPa, x2 = 0.175	0.0632
313.15 K, 402.8 kPa, x2 = 0.916	0.0901
313.15 K, 418.8 kPa, x2 = 0.477	0.0585
318.15 K, 218 kPa, x2 = 0.504	0.1217
318.15 K, 315 kPa, x2 = 0.797	0.1074
318.15 K, 321.3 kPa, x2 = 0.345	0.0717
318.15 K, 327.8 kPa, x2 = 0.175	0.0633
318.15 K, 410.7 kPa, x2 = 0.916	0.0901
318.15 K, 426.9 kPa, x2 = 0.477	0.0585
323.15 K, 221.7 kPa, x2 = 0.504	0.1217
323.15 K, 320.6 kPa, x2 = 0.797	0.1074
323.15 K, 327 kPa, x2 = 0.345	0.0717
323.15 K, 333.7 kPa, x2 = 0.175	0.0633
323.15 K, 418.5 kPa, x2 = 0.916	0.0901
323.15 K, 434.9 kPa, x2 = 0.477	0.0585
328.15 K, 225.3 kPa, x2 = 0.504	0.1217
328.15 K, 326.2 kPa, x2 = 0.797	0.1075
328.15 K, 332.9 kPa, x2 = 0.345	0.0718
328.15 K, 339.5 kPa, x2 = 0.175	0.0633
328.15 K, 426.4 kPa, x2 = 0.916	0.0902
328.15 K, 442.8 kPa, x2 = 0.477	0.0586
333.15 K, 229 kPa, x2 = 0.504	0.1217
333.15 K, 331.8 kPa, x2 = 0.797	0.1075
333.15 K, 338.6 kPa, x2 = 0.345	0.0718
333.15 K, 346.4 kPa, x2 = 0.175	0.0633
333.15 K, 434 kPa, x2 = 0.916	0.0902
333.15 K, 450.8 kPa, x2 = 0.477	0.0586
338.15 K, 232.6 kPa, x2 = 0.504	0.1218
338.15 K, 337.4 kPa, x2 = 0.797	0.1075
338.15 K, 344.2 kPa, x2 = 0.345	0.0718
338.15 K, 351.2 kPa, x2 = 0.175	0.0633
338.15 K, 441.7 kPa, x2 = 0.916	0.0902
338.15 K, 458.7 kPa, x2 = 0.477	0.0586
343.15 K, 236.3 kPa, x2 = 0.504	0.1218
343.15 K, 342.9 kPa, x2 = 0.797	0.1075
343.15 K, 349.8 kPa, x2 = 0.345	0.0718
343.15 K, 357 kPa, x2 = 0.175	0.0633
343.15 K, 449.4 kPa, x2 = 0.916	0.0902
343.15 K, 466.6 kPa, x2 = 0.477	0.0586
348.15 K, 239.9 kPa, x2 = 0.504	0.1218
348.15 K, 348.5 kPa, x2 = 0.797	0.1076
348.15 K, 355.4 kPa, x2 = 0.345	0.0718
348.15 K, 362.8 kPa, x2 = 0.175	0.0633
348.15 K, 457 kPa, x2 = 0.916	0.0902
348.15 K, 474.5 kPa, x2 = 0.477	0.0586
353.15 K, 243.6 kPa, x2 = 0.504	0.1218
353.15 K, 354.1 kPa, x2 = 0.797	0.1076
353.15 K, 361 kPa, x2 = 0.345	0.0718
353.15 K, 368.6 kPa, x2 = 0.175	0.0634
353.15 K, 464.6 kPa, x2 = 0.916	0.0903
353.15 K, 482.3 kPa, x2 = 0.477	0.0586
358.15 K, 247.3 kPa, x2 = 0.504	0.1219
358.15 K, 359.6 kPa, x2 = 0.797	0.1076
358.15 K, 366.6 kPa, x2 = 0.345	0.0719
358.15 K, 374.3 kPa, x2 = 0.175	0.0634
358.15 K, 472.2 kPa, x2 = 0.916	0.0903
358.15 K, 490.2 kPa, x2 = 0.477	0.0586
363.15 K, 251 kPa, x2 = 0.504	0.1219
363.15 K, 365.1 kPa, x2 = 0.797	0.1076
363.15 K, 372.2 kPa, x2 = 0.345	0.0719
363.15 K, 380.1 kPa, x2 = 0.175	0.0634
363.15 K, 479.8 kPa, x2 = 0.916	0.0903
363.15 K, 497.9 kPa, x2 = 0.477	0.0586
368.15 K, 254.6 kPa, x2 = 0.504	0.1219
368.15 K, 370.4 kPa, x2 = 0.797	0.1077
368.15 K, 377.8 kPa, x2 = 0.345	0.0719
368.15 K, 385.9 kPa, x2 = 0.175	0.0634
368.15 K, 487.3 kPa, x2 = 0.916	0.0903
368.15 K, 505.7 kPa, x2 = 0.477	0.0587
373.15 K, 258.3 kPa, x2 = 0.504	0.122
373.15 K, 375.9 kPa, x2 = 0.797	0.1077
373.15 K, 383.4 kPa, x2 = 0.345	0.0719
373.15 K, 391.6 kPa, x2 = 0.175	0.0634
373.15 K, 494.9 kPa, x2 = 0.916	0.0903
373.15 K, 513.5 kPa, x2 = 0.477	0.0587
378.15 K, 262 kPa, x2 = 0.504	0.122
378.15 K, 381.6 kPa, x2 = 0.797	0.1077
378.15 K, 389 kPa, x2 = 0.345	0.0719
378.15 K, 397.3 kPa, x2 = 0.175	0.0634
378.15 K, 502.4 kPa, x2 = 0.916	0.0904
378.15 K, 521.3 kPa, x2 = 0.477	0.0587
383.15 K, 265.6 kPa, x2 = 0.504	0.122
383.15 K, 387 kPa, x2 = 0.797	0.1077
383.15 K, 394.6 kPa, x2 = 0.345	0.0719
383.15 K, 403.1 kPa, x2 = 0.175	0.0634
383.15 K, 509.9 kPa, x2 = 0.916	0.0904
383.15 K, 529 kPa, x2 = 0.477	0.0587
